Data from patent US20250228865A1, “COMPOUNDS FOR ENHANCING READ THROUGH OF GENES CONTAINING PREMATURE TERMINATION CODONS AND METHODS FOR MAKING AND USING THE SAME” (Sanofi US Services Inc., priority 2022, published 2025).
Values joined by “and” are separate entries in the source; they are usually repeats but may differ in a detail not shown here. Equal entries are not always repeated.

How the values were obtained:
CFTR G542X = experiment: Functional CFTR channel activity, TECC-24 electrophysiology, 16HBE cells (CFTR G542X readthrough); type: cell-based, human
Protocol: (§1) 16HBE human bronchial epithelial cells were seeded onto Transwell 24-well filter inserts coated with human collagen type IV. Cells were seeded 7 days prior to functional testing at a density of 1.7×10^5 cells onto the “apical” chamber filter of the Transwell insert. Cells were grown as submerged cultures (200 μL apical/700 μL basolateral) in Minimal Essential Medium (MEM) containing 10% qualified Fetal Bovine Serum and 1% Penicillin/Streptomycin and incubated at 37° C. and 5% CO2. Growth media on cells was replenished with fresh media every 1-3 days prior to test agent treatment day. After 7 days in culture, the CFTR-mediated chloride (Cl^−) equivalent current (Ieq) of the 16HBE cells was recorded, which may typically form electrically tight epithelia with a transepithelial resistance (Rt) of 2000-6000 Ω·cm2 as described below. Forty-eight hours prior to electrophysiological measurements, fresh growth media containing the test agents was applied to both chambers separating filter bound epithelial monolayer.
(§2) On the day of electrophysiology studies, electrodes of a “Multi-(24-channel) transepithelial current clamp amplifier” (MTECC-24 (TECC-24 for short), EP Devices, Belgium) were soaked in an assay buffer (see below for composition) for at least 2 hours using 24-well Transwell plates without inserts. Cell culture media was replaced in the Transwell assay plates with assay buffer (see below) and the plates were mounted onto a custom-built automated robotic assay platform (Yamaha RCX240S controller) with heated plate holders set at 37° C. for 60 min. After equilibration, transepithelial potential difference (PD) and resistance (Rt) was monitoredat ˜5 min intervals using the TECC-24 transepithelial current clamp. Electrode potential differences were monitored for each pair of Ag/AgCl voltage electrodes by taking voltage measurements from a control (“blank”) plate with matching buffer solutions and 16HBE cells that were not treated with any test agent. PD values for each electrode pair were subtracted from the blank plate from that of the test plates at each time point. Ieq was calculated from the corrected PD values and Rt using Ohm's law. Ieq values were slope corrected to account for measurement drift over time using the equation: Slope corrected value=calculated Ieq−((time x slope)+y-intercept) with the slope and y-intercept calculated from the data points captured during the initial baseline period and following addition of the CFTR inhibitor.
(§3) The equivalent current (Ieq) traces associated with CFTR channel activation were plotted as baseline subtracted mean±standard deviation from 3-4 separate wells on the 24-well Transwell (n=3-4). There are 4 recording periods, with the first set of data points recorded baseline Ieq currents prior to sequential activation of available CFTR channels with forskolin (10 μM) and then in combination with potentiator VX-770/ivacaftor (1 μM). Recorded the last set of data points in the presence of CFTR inhibitor CFTRinh-172 (20 μM) to confirm that currents are mediated via activation of CFTR channels. The test agents and control/reference compounds were pre-diluted to 10-fold concentrations in assay buffer and added manually using a multi-channel pipette to both the basolateral and apical side of the membrane (test plates only). Employed CFTR-mediated changes in Ieq, (i.e. forskolin/VX-770 activated currents) to measure functional CFTR surface expression or treatment-related functional rescue of mutant CFTR.
(§4) The magnitude of test agent mediated enhancement of functional CFTR currents was calculated by comparing forskolin/VX-770 stimulated Ieq relative to baseline/CFTRinh-172 Ieq following 48 hour pretreatment with test agent(s) and normalizing to the forskolin/VX-770 stimulated Ieq determined following 48 hour pretreatment with a maximally effective concentration a reference control aminoglycoside agent (typically 110 μM G418). […]

CFTR R1162X = experiment: Functional CFTR channel activity, TECC-24 electrophysiology, 16HBE cells (CFTR R1162X readthrough); type: cell-based, human
Protocol: as §1, §2, §3, §4

[1] = tested on: recombinant human CFTR carrying the premature stop codon (PTC) mutation G542X; experiment: CFTR-PTC mutant translation readthrough, Nanoluc tagged CFTR luminescence (G542X cell line); type: cell-based; conditions: 10 μM G418 alone; 48 hours; cell line (G542X or R1162X) not specified
Outline: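 Readthrough is the 48 h compound-induced luminescence increase scaled to that of maximal G418 (125-250 μM). Compounds run from 50 μM final in 2-fold steps, ±10 μM G418, on 16HBE lines carrying Nanoluc-tagged CFTR G542X (extracellular loop 4 tag) or R1162X (C-terminal tag), with 3 μM VX-809 present.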

[2] = RTM conc. —, eRF3 modulator (CC-90009) 1 uM, ELX-02 100 uM
[3] = no RTM, eRF3 modulator (CC-90009) 1 uM, G418 10 uM
[4] = no RTM, eRF3 modulator (CC-90009) 10 uM, G418 10 uM

| SMILES | Currents (% of 110 μM G418 (Max effect)) (CFTR G542X; [2]) | Currents (% of 110 μM G418 (Max effect)) (CFTR R1162X; [2]) | Currents (% of 110 μM G418 (Max effect)) (CFTR G542X; [3]) | Currents (% of 110 μM G418 (Max effect)) (CFTR G542X; [4]) | Currents (% of 110 μM G418 (Max effect)) (CFTR R1162X; [3]) | Currents (% of 110 μM G418 (Max effect)) (CFTR R1162X; [4]) | response (Nanoluc luminescence) relative to a maximally effective concentration of G418 [1] |
| --- | --- | --- | --- | --- | --- | --- | --- |
| C[C@H](N)[C@H]1O[C@@H](OC2C(O)C(N)CC(N)C2OC2OC([C@@H](C)O)C(O)C(O)C2N)C(O)C1O (stereo partly shown) [ELX-02, reference compound] | 191 % of 110 μM G418 (Max effect) | 198 % of 110 μM G418 (Max effect) |  |  |  |  |  |
| CN[C@@H]1[C@@H](O)[C@@H](O[C@@H]2[C@@H](O)[C@H](O[C@H]3O[C@H]([C@@H](C)O)[C@@H](O)[C@H](O)[C@H]3N)[C@@H](N)C[C@H]2N)OC[C@]1(C)O [Example G418, G418, reference compound] |  |  | 130 % of 110 μM G418 (Max effect) | 102 % of 110 μM G418 (Max effect) | 110 % of 110 μM G418 (Max effect) and 95 % of 110 μM G418 (Max effect) | 130 % of 110 μM G418 (Max effect) and 139 % of 110 μM G418 (Max effect) | approximately 10 % of the response observed with a maximally effective concentration of G418 (typically 125-250 μM) |
